# Laboratory results reported in ChEMBL document CHEMBL1201862, “PubChem BioAssay data set” (2004).
# The source made the active and inactive calls. Positions of bridges follow the written chain, without caps; N, C: chain ends. Non-standard residues stand in square brackets, D forms with d. Residues, ends and D or L forms follow the SMILES beside them. *: point of attachment. X1 = CCC(C)C(N)C1=NC(C(=O)*)CS1; dOrn = NCCC[C@@H](N)C(=O)O
# Key:
# [1] = target: Nuclear receptor subfamily 0 group B member 1 (Homo sapiens, UniProt P51843); test: Luminescence-based cell-based high throughput dose response assay for inhibitors of the orphan nuclear receptor subfamily 0, group B, member 1 (DAX1; NR0B1). [Related pubchem assays (depositor defined):AID504766, AID504790]; type: functional
# Nuclear receptor subfamily 0 group B member 1, sequence (P51843 whole entry): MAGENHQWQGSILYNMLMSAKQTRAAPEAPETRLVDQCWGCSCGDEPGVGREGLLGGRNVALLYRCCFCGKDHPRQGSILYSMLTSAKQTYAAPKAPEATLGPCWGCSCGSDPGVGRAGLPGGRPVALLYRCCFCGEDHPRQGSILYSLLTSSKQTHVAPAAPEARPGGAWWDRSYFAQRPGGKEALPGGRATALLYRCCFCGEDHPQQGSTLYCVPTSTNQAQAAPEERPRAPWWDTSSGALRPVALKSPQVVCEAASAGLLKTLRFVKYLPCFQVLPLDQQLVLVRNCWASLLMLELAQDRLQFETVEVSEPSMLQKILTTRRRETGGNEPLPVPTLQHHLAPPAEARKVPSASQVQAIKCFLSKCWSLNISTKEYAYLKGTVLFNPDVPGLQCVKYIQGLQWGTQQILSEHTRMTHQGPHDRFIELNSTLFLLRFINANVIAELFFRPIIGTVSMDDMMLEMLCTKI
# HEK293 [2] = test: cells; type: functional, cell-based; settings: Homo sapiens
# HEK293 [3] = test: cells; settings: Homo sapiens
# HEK293 [4] = test: cells; settings: Homo sapiens; remark: listed apart in the source
# CAAX prenyl protease 2 = target: T1, CAAX prenyl protease 2 (Saccharomyces cerevisiae S288c, UniProt Q03530); type: biochemical
# T1 sequence (Q03530 whole entry): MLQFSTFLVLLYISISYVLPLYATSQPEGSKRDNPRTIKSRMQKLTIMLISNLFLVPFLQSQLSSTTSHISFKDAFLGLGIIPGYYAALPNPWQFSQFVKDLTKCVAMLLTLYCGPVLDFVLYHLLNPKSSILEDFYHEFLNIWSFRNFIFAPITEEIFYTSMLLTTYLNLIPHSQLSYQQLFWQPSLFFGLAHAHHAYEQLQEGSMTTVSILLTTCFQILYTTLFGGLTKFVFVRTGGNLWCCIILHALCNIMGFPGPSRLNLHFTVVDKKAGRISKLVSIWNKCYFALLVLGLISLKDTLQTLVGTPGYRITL
# [5] = Luminescence Cell-Based Dose Retest to Confirm Inhibitors of Cancer Stem Cells. [Related pubchem assays (depositor defined):AID2717, AID2721]; type: functional; settings: Homo sapiens
# [6] = viability loss of HMLE_sh_eGFP cells – cell-based, luminescence, counter-screen for HMLE_sh_ECad selective toxicity project, dose response (AID 463074); type: functional, Homo sapiens;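 note: HMLE human mammary epithelial cells expressing control shRNA against eGFP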
# Jurkat = test: blockers of NF-kB activation in T cells – Jurkat, luciferase reporter, luminescence, B- and T-cell, dose response (AID 489004); type: functional, cell-based; settings: Homo sapiens;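 note: NF-kB luciferase reporter Jurkat cells stimulated with PMA plus ionomycin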
# [7] = HEK-293T viability loss, compound-treated – cell-based, uHTS hits, cytotoxicity control for B/T-cell NF-kB inhibitor project, dose response (AID 489019); type: functional;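 note: IC50 reflects cytotoxicity as loss of cell viability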
# INS1 = test: INS-1E survival protection against cytokine death – cell-based, luminescence, retest, dose response (AID 449756); type: functional; settings: Rattus norvegicus;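 note: cell death triggered by IL-1 beta plus TNF-alpha plus IFN-gamma mixture; protective hits raise ATP signal compared with cytokine alone wells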
# [8] = target: T2, Apoptotic protease-activating factor 1 (Homo sapiens, UniProt O14727); type: functional
# T2 sequence (O14727 whole entry): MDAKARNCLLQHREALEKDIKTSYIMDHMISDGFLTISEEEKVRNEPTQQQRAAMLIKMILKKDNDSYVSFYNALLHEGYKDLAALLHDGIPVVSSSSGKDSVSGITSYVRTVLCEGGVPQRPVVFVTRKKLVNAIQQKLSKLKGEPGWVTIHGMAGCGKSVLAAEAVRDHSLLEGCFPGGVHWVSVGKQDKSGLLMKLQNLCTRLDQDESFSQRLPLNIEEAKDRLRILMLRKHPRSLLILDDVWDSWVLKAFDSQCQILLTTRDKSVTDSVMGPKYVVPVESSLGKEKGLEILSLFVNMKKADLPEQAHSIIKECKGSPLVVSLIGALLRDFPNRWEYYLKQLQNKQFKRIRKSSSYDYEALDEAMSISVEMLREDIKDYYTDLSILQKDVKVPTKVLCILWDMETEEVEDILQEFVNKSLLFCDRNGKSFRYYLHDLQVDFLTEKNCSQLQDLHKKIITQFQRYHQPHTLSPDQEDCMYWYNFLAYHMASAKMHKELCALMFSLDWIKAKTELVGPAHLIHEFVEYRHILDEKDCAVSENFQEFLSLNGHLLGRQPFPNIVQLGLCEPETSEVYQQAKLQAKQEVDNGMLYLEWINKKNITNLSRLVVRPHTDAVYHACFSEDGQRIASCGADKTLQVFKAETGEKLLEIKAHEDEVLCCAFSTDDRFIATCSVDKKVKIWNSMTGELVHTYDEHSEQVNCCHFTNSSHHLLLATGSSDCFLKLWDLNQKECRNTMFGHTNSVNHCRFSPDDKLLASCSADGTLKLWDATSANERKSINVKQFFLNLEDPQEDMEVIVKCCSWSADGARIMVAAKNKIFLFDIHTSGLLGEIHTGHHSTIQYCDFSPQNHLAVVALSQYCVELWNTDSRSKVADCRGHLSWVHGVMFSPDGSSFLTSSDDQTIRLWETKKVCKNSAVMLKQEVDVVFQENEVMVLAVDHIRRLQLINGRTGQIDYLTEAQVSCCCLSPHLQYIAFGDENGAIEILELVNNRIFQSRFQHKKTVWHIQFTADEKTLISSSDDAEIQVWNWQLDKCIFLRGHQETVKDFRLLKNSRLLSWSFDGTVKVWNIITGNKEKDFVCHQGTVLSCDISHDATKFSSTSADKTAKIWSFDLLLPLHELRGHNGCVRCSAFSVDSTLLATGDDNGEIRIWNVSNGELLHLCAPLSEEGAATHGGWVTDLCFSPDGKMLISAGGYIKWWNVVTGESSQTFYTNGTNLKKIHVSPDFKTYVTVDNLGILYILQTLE
# Protein RecA = target: T3, Protein RecA (Mycobacterium tuberculosis, UniProt P9WHJ3); test: Fluorescence Cell-Free Homogeneous Dose Retest to Identify Inhibitors of RecA-Intein Splicing Activity. [Related pubchem assays (depositor defined):AID2097, AID2223, AID489010, AID492950]; type: functional
# T3 sequence (P9WHJ3 whole entry): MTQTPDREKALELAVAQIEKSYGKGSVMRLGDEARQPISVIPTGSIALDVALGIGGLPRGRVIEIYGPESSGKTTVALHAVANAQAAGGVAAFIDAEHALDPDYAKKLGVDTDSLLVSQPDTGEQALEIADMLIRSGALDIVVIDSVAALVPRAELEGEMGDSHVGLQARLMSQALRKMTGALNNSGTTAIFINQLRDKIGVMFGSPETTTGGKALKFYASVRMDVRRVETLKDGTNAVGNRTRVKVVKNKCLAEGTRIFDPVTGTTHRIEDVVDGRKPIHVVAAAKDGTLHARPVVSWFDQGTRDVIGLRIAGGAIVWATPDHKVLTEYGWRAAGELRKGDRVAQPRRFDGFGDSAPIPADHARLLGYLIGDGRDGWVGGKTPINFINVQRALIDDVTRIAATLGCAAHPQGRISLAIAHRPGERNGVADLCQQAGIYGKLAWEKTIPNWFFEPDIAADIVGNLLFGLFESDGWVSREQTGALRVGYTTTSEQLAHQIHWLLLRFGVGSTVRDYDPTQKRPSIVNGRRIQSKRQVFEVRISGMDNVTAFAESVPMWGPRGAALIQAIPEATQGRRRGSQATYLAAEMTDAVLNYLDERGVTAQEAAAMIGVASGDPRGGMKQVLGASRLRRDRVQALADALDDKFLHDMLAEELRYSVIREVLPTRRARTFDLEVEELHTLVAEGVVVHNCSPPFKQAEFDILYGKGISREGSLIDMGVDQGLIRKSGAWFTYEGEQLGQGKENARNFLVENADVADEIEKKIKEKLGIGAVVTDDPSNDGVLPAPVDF
# [9] = target: T4, Microphthalmia-associated transcription factor (Homo sapiens, UniProt O75030); test: reducers of TRPM1 reporter luminescence, concentration series – cell-based, SK-MEL-5, cherry-picked, set 3, MITF inhibitor project, dose response (AID 493073); type: functional;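 note: SK-MEL-5 melanoma cells with luciferase driven by the MITF target TRPM1 promoter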
# T4 sequence (O75030 whole entry): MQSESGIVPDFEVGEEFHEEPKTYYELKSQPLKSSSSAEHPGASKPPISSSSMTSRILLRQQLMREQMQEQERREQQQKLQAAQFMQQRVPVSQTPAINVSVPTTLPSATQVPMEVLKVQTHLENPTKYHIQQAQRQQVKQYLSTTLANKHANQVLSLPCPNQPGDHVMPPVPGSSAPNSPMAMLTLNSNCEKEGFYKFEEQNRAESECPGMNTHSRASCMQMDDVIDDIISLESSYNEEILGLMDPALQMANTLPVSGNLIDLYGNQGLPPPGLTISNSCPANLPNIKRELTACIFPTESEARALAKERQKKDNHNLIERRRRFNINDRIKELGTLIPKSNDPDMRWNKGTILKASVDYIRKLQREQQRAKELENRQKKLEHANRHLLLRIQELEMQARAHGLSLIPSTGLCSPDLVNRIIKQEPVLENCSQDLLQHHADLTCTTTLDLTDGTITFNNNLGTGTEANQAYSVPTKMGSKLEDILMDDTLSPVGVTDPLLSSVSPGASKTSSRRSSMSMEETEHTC
# [10] = target: T5, Replicative DNA helicase DnaB (Mycobacterium tuberculosis, UniProt P9WMR3); test: DnaB intein splicing inhibitors, dose response, biochemical, cell-free fluorescence (AID 449749); type: functional
# T5 sequence (P9WMR3 whole entry): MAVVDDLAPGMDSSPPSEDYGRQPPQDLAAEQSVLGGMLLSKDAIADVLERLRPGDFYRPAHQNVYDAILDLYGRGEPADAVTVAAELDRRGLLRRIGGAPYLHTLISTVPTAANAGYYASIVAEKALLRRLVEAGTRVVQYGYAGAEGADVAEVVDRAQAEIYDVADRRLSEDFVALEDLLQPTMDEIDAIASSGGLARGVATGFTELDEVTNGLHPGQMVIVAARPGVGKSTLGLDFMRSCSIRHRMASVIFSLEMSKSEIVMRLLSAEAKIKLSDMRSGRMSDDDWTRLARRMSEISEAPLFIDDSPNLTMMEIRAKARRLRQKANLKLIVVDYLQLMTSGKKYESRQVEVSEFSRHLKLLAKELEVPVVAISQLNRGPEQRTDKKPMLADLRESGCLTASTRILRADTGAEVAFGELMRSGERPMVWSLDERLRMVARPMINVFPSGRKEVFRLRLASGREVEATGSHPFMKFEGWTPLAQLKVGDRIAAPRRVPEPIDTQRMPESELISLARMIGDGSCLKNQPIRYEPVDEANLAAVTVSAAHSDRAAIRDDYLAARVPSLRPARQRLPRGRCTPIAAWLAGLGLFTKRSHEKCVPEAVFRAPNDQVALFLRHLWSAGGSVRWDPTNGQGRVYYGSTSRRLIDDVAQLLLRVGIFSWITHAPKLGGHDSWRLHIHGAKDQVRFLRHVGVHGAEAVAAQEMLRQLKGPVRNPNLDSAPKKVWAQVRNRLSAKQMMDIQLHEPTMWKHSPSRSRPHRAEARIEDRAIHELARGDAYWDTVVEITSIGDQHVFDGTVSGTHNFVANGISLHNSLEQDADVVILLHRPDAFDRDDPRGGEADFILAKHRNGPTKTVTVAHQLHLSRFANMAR
# A-375 = test: MITF: Counter assay: A375 proliferation Measured in Cell-Based System Using Plate Reader - 2084-03_Inhibitor_Dose_DryPowder_Activity. [Related pubchem assays (depositor defined):AID488944]; type: functional; settings: Homo sapiens
# Hexokinase HKDC1 = target: T6, Hexokinase HKDC1 (Homo sapiens, UniProt Q2TB90); test: inhibition of HKDC1 glucose phosphorylation – biochemical, W721R variant, dose response (AID 504729); type: functional
# T6 sequence (Q2TB90 whole entry): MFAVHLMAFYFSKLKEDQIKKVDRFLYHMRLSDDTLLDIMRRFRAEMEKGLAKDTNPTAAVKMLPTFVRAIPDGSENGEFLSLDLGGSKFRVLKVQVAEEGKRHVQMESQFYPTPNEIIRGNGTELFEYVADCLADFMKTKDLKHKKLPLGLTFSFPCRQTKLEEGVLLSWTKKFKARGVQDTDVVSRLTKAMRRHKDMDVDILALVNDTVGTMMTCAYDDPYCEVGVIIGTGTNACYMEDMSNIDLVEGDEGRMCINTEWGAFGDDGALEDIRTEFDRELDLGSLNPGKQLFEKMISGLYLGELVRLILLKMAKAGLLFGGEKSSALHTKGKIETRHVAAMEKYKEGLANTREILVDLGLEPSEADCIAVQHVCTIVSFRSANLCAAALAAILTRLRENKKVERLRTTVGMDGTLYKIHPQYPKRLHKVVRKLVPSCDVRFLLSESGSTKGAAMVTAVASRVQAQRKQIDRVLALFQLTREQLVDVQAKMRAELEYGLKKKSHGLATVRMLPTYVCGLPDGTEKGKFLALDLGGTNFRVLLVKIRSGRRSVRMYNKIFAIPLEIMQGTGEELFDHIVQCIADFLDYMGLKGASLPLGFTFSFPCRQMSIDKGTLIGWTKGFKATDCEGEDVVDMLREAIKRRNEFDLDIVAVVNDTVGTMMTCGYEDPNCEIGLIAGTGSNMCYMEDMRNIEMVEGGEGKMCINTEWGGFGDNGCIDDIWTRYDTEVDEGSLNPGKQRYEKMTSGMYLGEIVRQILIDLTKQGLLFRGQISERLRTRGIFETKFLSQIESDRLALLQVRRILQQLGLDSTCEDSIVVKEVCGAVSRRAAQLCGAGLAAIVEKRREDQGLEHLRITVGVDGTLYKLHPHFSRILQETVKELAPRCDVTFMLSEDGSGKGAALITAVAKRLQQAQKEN
# Escherichia coli [11] = test: microbe, parasite or virus in culture
# Escherichia coli [12] = test: microbe, parasite or virus in culture; remark: listed apart in the source
compound,measurement,setting,value
CNC(=O)c1ncnnc1N(C)C(=O)NCc1ccccc1,IC50,[1],> 67.5 µM (inactive)
same,IC50,HEK293 [2],> 67.5 µM (inactive)
COc1ccc(Cn2nnc3c(O)nc(C(=O)NCCc4ccc(F)cc4)nc32)cc1OC,EC50,HEK293 [3],> 59.7 µM (inactive)
same,EC50,HEK293 [4],> 59.7 µM (inactive)
CCCCN=C(S)N=Nc1c(O)n(Cc2ccccc2)c2ccccc12,AC50,CAAX prenyl protease 2,0.601 µM (active)
same,AC50,[5],61.5 µM (active)
same,AC50,[6],119 µM (active)
N=c1ccn2c(n1)O[C@H]1[C@@H](CO)[C@H](O)O[C@H]12,IC50,Jurkat,> 80 µM (inactive)
same,IC50,[7],> 80 µM (inactive)
CCOC(=O)c1c(C)oc2c1C(=O)c1ccccc1C2=O,AC50,INS1,3.7 µM (active)
same,IC50,[8],16.1 µM (active)
same,EC50,Protein RecA,13.3 µM (active)
same,AC50,[5],4.44 µM (active)
same,AC50,[9],3.18 µM (active)
same,AC50,[10],6.31 µM (active)
same,AC50,A-375,41.9 µM (active)
CCC(C)C(N)C1=NC(C(=O)N[C@@H](CC(C)C)C(=O)N[C@H](CCC(=O)[O-])C(=O)N[C@H](C(=O)N[C@H]2CCCCNC(=O)[C@H](CC(N)=O)NC(=O)[C@@H](CC(=O)[O-])NC(=O)[C@H](Cc3c[nH]cn3)NC(=O)[C@@H](Cc3ccccc3)NC(=O)[C@H]([C@@H](C)CC)NC(=O)[C@@H](CCCN)NC2=O)[C@@H](C)CC)CS1.[Zn+2] (some centres undefined) (X1-L[dE]IK[dOrn]I[dF]H[dD]N; lactam 4-C),IC50,Hexokinase HKDC1,2.69 µM (active)
same,AC50,Escherichia coli [11],184 µM (active)
same,AC50,Escherichia coli [12],38 µM (active)
